# According to patent US12281125B2, “Rapamycin derivatives” (NOVARTIS AG, priority 2018, dated 2025):
# Tested on: mTORc1 signaling, pS6 (Ser240/244) in MEF TSCl−/− cells
# Assay: Cell-based assay for rapalog potency (pS6) in MEF TSCl−/− cells
# Conditions: Mus musculus, 2 hours treatment, average from multiple assays
# Method: Rapalog potency was determined using MEF TSCl−/− cell based assay. MEF TSCl−/− cells are Mouse Embryonic Fibroblasts deficient in Tuberous sclerosis protein—TSCl, which negatively regulates mTORc1 signaling and thus display constitutive mTORc1 activation, resulting in phosphorylation (activation) of downstream molecules. This cell-based assay is used to measure inhibition (de-phosphorylation) of S6 and 4EBP1 by rapalogs or other mTOR inhibitors.
# MEF TSCl−/− cells were plated on Poly-D-lysine coated 384 well Griener clear bottom plates and incubated overnight at 37° C., 5% CO2. On the following day, cells were washed 8 times with “Hard starve” solution (1 L DPBS+1 g D-(+) glucose+10 ml of 7.5% Sodium Bicarbonate+20 ml of 1M HEPES) and incubated for further 2 hours in the same solution. Cells were next treated with compounds with decreasing concentrations (8 points at 3.16 fold dilutions) and incubated for 2 hours at 37° C., 5% CO2. Cells were fixed with 4% paraformaldehyde for 30 min and washed 5 times with TBS-EDTA followed by immuno-staining with fluorescent tag labeled antibodies for pS6 (Ser240/244) (Cell Signaling #9468) and p4EBP1 (Thr 37/46) (Cell Signaling #5123). Nuclei were visualized with Hoechst (ThermoFisher Scientific #H3570) staining. Cells were imaged (InCell 600) using respective fluorescence channels and the potency of mTOR inhibitors was defined by pS6 IC50 (nM).
# In vitro potency of mTOR inhibitors was defined by pS6 IC50 (nM) in MEF TSCl−/− cells.
# IC50 values are calculated as the average from multiple assays.
row,IC50,Structure (SMILES)
1,> 500 nM,CO[C@@H]1C[C@H](C[C@@H](C)[C@@H]2CC[C@H](C)/C=C(\C)[C@@H](O)[C@@H](OC)C(=O)[C@H](C)C[C@H](C)/C=C/C=C/C=C(\C)[C@@H](NCCS(=O)(=O)O)C[C@@H]3CC[C@@H](C)[C@@](O)(O3)C(=O)C(=O)N3CCCC[C@H]3C(=O)O2)CC[C@H]1O [Compound 38]
2,160 nM,CO[C@@H]1C[C@H](C[C@@H](C)[C@@H]2CC[C@H](C)/C=C(\C)[C@@H](O)[C@@H](OC)C(=O)[C@H](C)C[C@H](C)/C=C/C=C/C=C(\C)[C@@H](NCCS(=O)(=O)O)C[C@@H]3CC[C@@H](C)[C@@](O)(O3)C(=O)C(=O)N3CCCC[C@H]3C(=O)O2)CC[C@H]1OCCO [Compound 40]
3,5.3 nM,CO[C@@H]1C[C@H](C[C@@H](C)[C@@H]2CC[C@H](C)/C=C(\C)[C@@H](O)[C@@H](OC)C(=O)[C@H](C)C[C@H](C)/C=C/C=C/C=C(\C)[C@@H](NS(=O)(=O)C3CCC3)C[C@@H]3CC[C@@H](C)[C@@](O)(O3)C(=O)C(=O)N3CCCC[C@H]3C(=O)O2)CC[C@H]1O [Compound 13]
4,4.4 nM,CO[C@@H]1C[C@H](C[C@@H](C)[C@@H]2CC[C@H](C)/C=C(\C)[C@@H](O)[C@@H](OC)C(=O)[C@H](C)C[C@H](C)/C=C/C=C/C=C(\C)[C@@H](N(O)C(=O)OC(C)(C)C)C[C@@H]3CC[C@@H](C)[C@@](O)(O3)C(=O)C(=O)N3CCCC[C@H]3C(=O)O2)CC[C@H]1O [Compound 35]
5,26 nM,CO[C@@H]1C[C@H](C[C@@H](C)[C@@H]2CC[C@H](C)/C=C(\C)[C@@H](O)[C@@H](OC)C(=O)[C@H](C)C[C@H](C)/C=C/C=C/C=C(\C)[C@H](NS(C)(=O)=O)C[C@@H]3CC[C@@H](C)[C@@](O)(O3)C(=O)C(=O)N3CCCC[C@H]3C(=O)O2)CC[C@H]1OP(C)(C)=O [Compound 23]
6,18 nM,CN[C@@H]1C[C@@H]2CC[C@@H](C)[C@@](O)(O2)C(=O)C(=O)N2CCCC[C@H]2C(=O)O[C@H]([C@H](C)C[C@@H]2CC[C@@H](O)[C@H](OC)C2)CC[C@H](C)/C=C(\C)[C@@H](O)[C@@H](OC)C(=O)[C@H](C)C[C@H](C)/C=C/C=C/C=C/1C [Compound 32]
7,0.67 nM,CN[C@H]1C[C@@H]2CC[C@@H](C)[C@@](O)(O2)C(=O)C(=O)N2CCCC[C@H]2C(=O)O[C@H]([C@H](C)C[C@@H]2CC[C@@H](O)[C@H](OC)C2)CC[C@H](C)/C=C(\C)[C@@H](O)[C@@H](OC)C(=O)[C@H](C)C[C@H](C)/C=C/C=C/C=C/1C [Compound 33]
8,0.35 nM,CO[C@@H]1C[C@H](C[C@@H](C)[C@@H]2CC[C@H](C)/C=C(\C)[C@@H](O)[C@@H](OC)C(=O)[C@H](C)C[C@H](C)/C=C/C=C/C=C(\C)[C@@H](N)C[C@@H]3CC[C@@H](C)[C@@](O)(O3)C(=O)C(=O)N3CCCC[C@H]3C(=O)O2)CC[C@H]1O [Compound 28]
9,50 nM,CO[C@@H]1C[C@H](C[C@@H](C)[C@@H]2CC[C@H](C)/C=C(\C)[C@@H](O)[C@@H](OC)C(=O)[C@H](C)C[C@H](C)/C=C/C=C/C=C(\C)[C@H](NS(=O)(=O)C3CCCC3)C[C@@H]3CC[C@@H](C)[C@@](O)(O3)C(=O)C(=O)N3CCCC[C@H]3C(=O)O2)CC[C@H]1O [Compound 16]
10,3.6 nM,CO[C@@H]1C[C@H](C[C@@H](C)[C@@H]2CC[C@H](C)/C=C(\C)[C@@H](O)[C@@H](OC)C(=O)[C@H](C)C[C@H](C)/C=C/C=C/C=C(\C)[C@@H](NS(=O)(=O)C3CCCC3)C[C@@H]3CC[C@@H](C)[C@@](O)(O3)C(=O)C(=O)N3CCCC[C@H]3C(=O)O2)CC[C@H]1O [Compound 15]
11,27 nM,CO[C@@H]1C[C@H](C[C@@H](C)[C@@H]2CC[C@H](C)/C=C(\C)[C@@H](O)[C@@H](OC)C(=O)[C@H](C)C[C@H](C)/C=C/C=C/C=C(\C)[C@H](N(O)C(=O)OC(C)(C)C)C[C@@H]3CC[C@@H](C)[C@@](O)(O3)C(=O)C(=O)N3CCCC[C@H]3C(=O)O2)CC[C@H]1O [Compound 34]
12,4.5 nM,CO[C@@H]1C[C@H](C[C@@H](C)[C@@H]2CC[C@H](C)/C=C(\C)[C@@H](O)[C@@H](OC)C(=O)[C@H](C)C[C@H](C)/C=C/C=C/C=C(\C)[C@H](NS(=O)(=O)C(C)C)C[C@@H]3CC[C@@H](C)[C@@](O)(O3)C(=O)C(=O)N3CCCC[C@H]3C(=O)O2)CC[C@H]1O [Compound 8]
13,0.34 nM,CO[C@@H]1C[C@H](C[C@@H](C)[C@@H]2CC[C@H](C)/C=C(\C)[C@@H](O)[C@@H](OC)C(=O)[C@H](C)C[C@H](C)/C=C/C=C/C=C(\C)[C@@H](NS(=O)(=O)CCO)C[C@@H]3CC[C@@H](C)[C@@](O)(O3)C(=O)C(=O)N3CCCC[C@H]3C(=O)O2)CC[C@H]1O [Compound 19]
14,1.6 nM,CO[C@@H]1C[C@H](C[C@@H](C)[C@@H]2CC[C@H](C)/C=C(\C)[C@@H](O)[C@@H](OC)C(=O)[C@H](C)C[C@H](C)/C=C/C=C/C=C(\C)[C@H](NO)C[C@@H]3CC[C@@H](C)[C@@](O)(O3)C(=O)C(=O)N3CCCC[C@H]3C(=O)O2)CC[C@H]1O [Compound 36]
15,1.7 nM,CO[C@@H]1C[C@H](C[C@@H](C)[C@@H]2CC[C@H](C)/C=C(\C)[C@@H](O)[C@@H](OC)C(=O)[C@H](C)C[C@H](C)/C=C/C=C/C=C(\C)[C@H](NS(=O)(=O)CCO)C[C@@H]3CC[C@@H](C)[C@@](O)(O3)C(=O)C(=O)N3CCCC[C@H]3C(=O)O2)CC[C@H]1O [Compound 20]
16,33 nM,CO[C@@H]1C[C@H](C[C@@H](C)[C@@H]2CC[C@H](C)/C=C(\C)[C@@H](O)[C@@H](OC)C(=O)[C@H](C)C[C@H](C)/C=C/C=C/C=C(\C)[C@H](NCCS(=O)(=O)O)C[C@@H]3CC[C@@H](C)[C@@](O)(O3)C(=O)C(=O)N3CCCC[C@H]3C(=O)O2)CC[C@H]1OCCO [Compound 41]
17,0.18 nM,CO[C@@H]1C[C@H](C[C@@H](C)[C@@H]2CC[C@H](C)/C=C(\C)[C@@H](O)[C@@H](OC)C(=O)[C@H](C)C[C@H](C)/C=C/C=C/C=C(\C)C(NC(=O)OC(C)(C)C)C[C@@H]3CC[C@@H](C)[C@@](O)(O3)C(=O)C(=O)N3CCCC[C@H]3C(=O)O2)CC[C@H]1O (some centres unmarked) [Intermediate 8]
18,> 500 nM,CO[C@@H]1C[C@H](C[C@@H](C)[C@@H]2CC[C@H](C)/C=C(\C)[C@@H](O)[C@@H](OC)C(=O)[C@H](C)C[C@H](C)/C=C/C=C/C=C(\C)[C@H](NCCS(=O)(=O)O)C[C@@H]3CC[C@@H](C)[C@@](O)(O3)C(=O)C(=O)N3CCCC[C@H]3C(=O)O2)CC[C@H]1O [Compound 39]
19,2.1 nM,CO[C@@H]1C[C@H](C[C@@H](C)[C@@H]2CC[C@H](C)/C=C(\C)[C@@H](O)[C@@H](OC)C(=O)[C@H](C)C[C@H](C)/C=C/C=C/C=C(\C)[C@H](NS(C)(=O)=O)C[C@@H]3CC[C@@H](C)[C@@](O)(O3)C(=O)C(=O)N3CCCC[C@H]3C(=O)O2)CC[C@@H]1n1cnnn1 [Compound 21]
20,1.8 nM,CO[C@@H]1C[C@H](C[C@@H](C)[C@@H]2CC[C@H](C)/C=C(\C)[C@@H](O)[C@@H](OC)C(=O)[C@H](C)C[C@H](C)/C=C/C=C/C=C(\C)[C@H](NS(C)(=O)=O)C[C@@H]3CC[C@@H](C)[C@@](O)(O3)C(=O)C(=O)N3CCCC[C@H]3C(=O)O2)CC[C@H]1OCCO [Compound 25]
21,30 nM,CO[C@@H]1C[C@H](C[C@@H](C)[C@@H]2CC[C@H](C)/C=C(\C)[C@@H](O)[C@@H](OC)C(=O)[C@H](C)C[C@H](C)/C=C/C=C/C=C(\C)[C@H](N)C[C@@H]3CC[C@@H](C)[C@@](O)(O3)C(=O)C(=O)N3CCCC[C@H]3C(=O)O2)CC[C@H]1O [Compound 29]
22,2.7 nM,CO[C@@H]1C[C@H](C[C@@H](C)[C@@H]2CC[C@H](C)/C=C(\C)[C@@H](O)[C@@H](OC)C(=O)[C@H](C)C[C@H](C)/C=C/C=C/C=C(\C)[C@@H](NS(=O)(=O)CC(C)C)C[C@@H]3CC[C@@H](C)[C@@](O)(O3)C(=O)C(=O)N3CCCC[C@H]3C(=O)O2)CC[C@H]1O [Compound 9]
23,1.9 nM,CO[C@@H]1C[C@H](C[C@@H](C)[C@@H]2CC[C@H](C)/C=C(\C)[C@@H](O)[C@@H](OC)C(=O)[C@H](C)C[C@H](C)/C=C/C=C/C=C(\C)[C@@H](N(C)S(C)(=O)=O)C[C@@H]3CC[C@@H](C)[C@@](O)(O3)C(=O)C(=O)N3CCCC[C@H]3C(=O)O2)CC[C@H]1OP(C)(C)=O [Compound 27]
24,12 nM,CO[C@@H]1C[C@H](C[C@@H](C)[C@@H]2CC[C@H](C)/C=C(\C)[C@@H](O)[C@@H](OC)C(=O)[C@H](C)C[C@H](C)/C=C/C=C/C=C(\C)[C@H](NS(=O)(=O)CC(C)C)C[C@@H]3CC[C@@H](C)[C@@](O)(O3)C(=O)C(=O)N3CCCC[C@H]3C(=O)O2)CC[C@H]1O [Compound 10]
25,7.2 nM,CO[C@@H]1C[C@H](C[C@@H](C)[C@@H]2CC[C@H](C)/C=C(\C)[C@@H](O)[C@@H](OC)C(=O)[C@H](C)C[C@H](C)/C=C/C=C/C=C(\C)[C@H](NS(=O)(=O)C3CCC3)C[C@@H]3CC[C@@H](C)[C@@](O)(O3)C(=O)C(=O)N3CCCC[C@H]3C(=O)O2)CC[C@H]1O [Compound 14]
26,1.6 nM,CO[C@@H]1C[C@H](C[C@@H](C)[C@@H]2CC[C@H](C)/C=C(\C)[C@@H](O)[C@@H](OC)C(=O)[C@H](C)C[C@H](C)/C=C/C=C/C=C(\C)[C@@H](NS(=O)(=O)CCCCl)C[C@@H]3CC[C@@H](C)[C@@](O)(O3)C(=O)C(=O)N3CCCC[C@H]3C(=O)O2)CC[C@H]1O [Compound 17]
